This is an account of results in patent US20150119792A1, “LIGHT DEGRADABLE DRUG DELIVERY SYSTEM FOR OCULAR THERAPY” (priority 2012, published 2015).

For data set [1], the system named is Raw 264.7 cells. Briefly: Light-triggered release of FDA from nanoparticles, cell fluorescence (imaging, plate reader). As to conditions: UV irradiation, free FDA. It is filed as cell-based. The procedure:
The dye selected for these studies was Fluorescein Diacetate (FDA), which is an ester of fluorescein. […] Nanoparticles containing FDA were formulated through an inverse emulsion/solvent evaporation process. […] The resulting solution was added to a larger volume of 1% solution of polyvinyl alcohol (PVA) and probe sonicated to form the emulsion. The organic solvent was then evaporated under vacuum, and PVA removed by tangential flow ultrafiltration. The resulting solution was then freeze-dried with mannitol as cryoprotectant. The resulting particles were characterized by dynamic light scattering (DLS) and scanning electron microscopy (SEM). The encapsulation efficiency was evaluated by liquid-liquid extraction of FDA from particles and fluorescence measurements. […] As a more quantitative assay, we measured the amount of fluorescence of the cells using a plate reader (same cell count in each well). […] FIG. 4 is a bar graph showing the measured fluorescence for irradiated and non-irradiated Raw 264.7 cells. The cells in irradiated wells show higher fluorescence due to triggered release of payload (dark bars) as compared to cells in non-irradiated wells (light bars). […] We found an 18-fold increase in fluorescence upon irradiation as compared to the non-irradiated control in Raw 264.7 macrophage cell line, as well as a 3-fold increase upon irradiation in retinal cell line.

Data set [2] is described as follows: Visual and microscopic inspection of the eye after intra-vitreous injection. In kind it is in vivo, Sprague-Dawley albino rats. Particulars: compared with PBS buffer (left eye). As to the method:
WO2011/038117. Initial in vivo testing on a rat model (Sprague-Dawley albino rats) was performed to determine the biocompatibility of the empty polymer particles without encapsulated cargo. This involved intra-vitreous injection of different concentrations of the light-degradable particles (“NP low” and “NP high” test categories in FIG. 2A) as well as different concentrations of nanoparticles composed of a known biocompatible material (PLGA). In each animal, the test material was injected into the right eye while a phosphate buffered solution (PBS) was injected into the left eye as a negative control. Additionally, animals were administered nanoparticle solutions that had previously been irradiated with UV light (˜350 nm) to determine any deleterious effects of the degradation byproducts (“NP low+UV” and “NP high+UV”.) Lipopolysaccharide (LPS) was injected in another group as a positive control as it is known to cause inflammation. […] FIG. 2A illustrates the intra-ocular pressure (IOP) data for these tests, with each group of bars, with the bars proceeding from left to right in the figure, corresponding to pre-operative IOP, drug (nanoparticle) day 1, PBS at day 1 after injection, drug (nanoparticle) day 4 after injection, PBS day 4, drug day 5, PBS day 5 etc. up to day 7 after injection. […] Second, the intra-ocular pressure was measured daily. […]

Take `CC(=O)Oc1ccc2c(c1)Oc1cc(OC(C)=O)ccc1C21OC(=O)c2ccccc21` [FDA, Fluorescein Diacetate]: in data set [1], the “bleaching of FDA by irradiation” value is on record as “does not cause significant bleaching”.
As for Lipopolysaccharide [LPS], in data set [2], the “visual and microscopic inspection of the eye” value is “caused tearing”.
